The values below come from patent publication US8461199B2, “Transition metal complexes of a bis[thio-hydrazide amide] compound” (Synta Pharmaceuticals Corp., priority 2008, dated 2013).

One may read the IC50 as the point on the concentration scale where inhibition reaches its midpoint.

Bounds are passed on as bounds.

The subject of one test is M14 melanoma cells. In words: Cytotoxicity in confluent M14 cells, cell viability by CCK8 assay. In kind it is cell-based. Particulars: Homo sapiens, 48 h incubation, 0.25% DMSO, n=4. The procedure: M14 melanoma cells were seeded at 50,000 cells per well of 96-well plate in 100 μl of Dulbecco's minimum essential medium (DMEM) supplemented with 10% fetal bovine serum. Cells were cultured at 37° C. under 5% CO2-95% air. After 16 hours of incubation, the test compound was added to the cell culture. The compound was first diluted in 100% dimethyl sulfoxide (DMSO) at 400-fold of the final concentrations actually used in the assay. The DMSO solution was next diluted 20 fold with the culture medium, and then finally added to the assay wells at another 20-fold dilution. Assay medium included the test compound with concentrations as indicated with 0.25% DMSO. Cell viability was measured with a CCK8 assay (as described in the Technical Manual for Cell Counting Kit-8, Product #CK04-11, CK04-13 and CK04-20, Dojindo Molecular Technologies, Inc. MD, Tantular, I. S., et al. Tropical Medicine and International Health, 8(6), 569-574, 2003) in the last 15 minutes after a 48 h incubation with the test compound. Each bar of the figure expresses average percent inhibition against vehicle (0.25% DMSO) control (n=4).

Test [1] has as its system stage IV metastatic melanoma. Conditions: in combination with paclitaxel, relative to patients treated with paclitaxel alone; cited from earlier work.

`CN(NC(=O)CC(=O)NN(C)C(=S)c1ccccc1)C(=S)c1ccccc1` [compound A, N-malonyl-bis(N′-methyl-N′-thiobenzoylhydrazide)] came in with an IC50 in the test with M14 melanoma cells of more than 12.5 µM. Also, the time to progression entry in test [1] is “increase the time to progression”.
